These results are taken from patent US9394297B2, “Amides as pim inhibitors” (AMGEN INC., priority 2012, dated 2016).

The target of one assay is Pim-2 (Homo sapiens (Human), UniProt Q9P1W9). Nature of the assay: Pim-Mn enzyme assay (HTRF, 384-well), Pim-2. It counts as biochemical. The following applies: Pim-2 enzyme 0.5 pM, ATP 1.5 μM, BAD (S112) 0.5 μM, HTRF, 22-point curve; read-out: Pim-2-Mn IC50 IP.
The target of a further assay is Pim-1 (Homo sapiens (Human), UniProt P11309). Put plainly: Pim-Mn enzyme assay (HTRF, 384-well), Pim-1. It counts as biochemical. The following applies: Pim-1 enzyme 5 pM, ATP 1.5 μM, BAD (S112) 0.5 μM, HTRF, 22-point curve; read-out: Pim-1-Mn IC50 IP. (In general: TR-FRET usually uses a lanthanide donor and a delayed reading to cut background.)
Sequence of Pim-1 (P11309 whole entry): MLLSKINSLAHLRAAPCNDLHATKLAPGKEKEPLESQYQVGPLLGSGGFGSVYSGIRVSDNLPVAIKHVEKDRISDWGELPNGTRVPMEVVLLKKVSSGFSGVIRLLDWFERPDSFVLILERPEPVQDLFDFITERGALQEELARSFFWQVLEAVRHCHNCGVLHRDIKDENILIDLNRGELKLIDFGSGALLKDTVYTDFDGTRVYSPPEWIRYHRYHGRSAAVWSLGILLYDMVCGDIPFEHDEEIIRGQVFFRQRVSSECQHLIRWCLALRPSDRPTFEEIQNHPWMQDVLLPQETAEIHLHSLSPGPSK
For another assay, the system named is KMS-12-BM cell lines. Nature of the assay: KMS12 #2 flow cytometry assay (phospho-BAD Ser112). It counts as cell-based. The following applies: Homo sapiens, 110 min; KMS-12-BM cells, pBAD Ser112 by flow cytometry, 110 min with compound; read-out: KMS-12-Flow IC50 IP.

The structures appear in SMILES notation.

In general, IC50 refers to the point on the concentration scale where inhibition reaches its midpoint.

Sequence of Pim-2 (Q9P1W9 whole entry): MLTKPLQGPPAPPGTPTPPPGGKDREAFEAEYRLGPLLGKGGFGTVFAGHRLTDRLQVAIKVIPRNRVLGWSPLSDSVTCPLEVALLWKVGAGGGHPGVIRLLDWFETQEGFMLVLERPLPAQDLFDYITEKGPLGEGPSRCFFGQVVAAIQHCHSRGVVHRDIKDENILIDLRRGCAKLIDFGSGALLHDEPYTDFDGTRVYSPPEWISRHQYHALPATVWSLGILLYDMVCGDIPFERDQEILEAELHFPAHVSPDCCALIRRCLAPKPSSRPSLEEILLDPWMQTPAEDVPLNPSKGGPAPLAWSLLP

On to `Cc1nc2cccc(-c3cc4c([nH]3)C(COCc3ccccc3)NC4=O)c2nc1NC(C)(C)C` (racemic) [Example 468, (6R)-6-((benzyloxy)methyl)-2-(3-(tert-butylamino)-2-methyl-5-quinoxalinyl)-5,6-dihydropyrrolo[3,4-b]pyrrol-4(1H)-one and (6S)-6-((benzyloxy)methyl)-2-(3-(tert-butylamino)-2-methyl-5-quinoxalinyl)-5,6-dihydropyrrolo[3,4-b]pyrrol-4(1H)-one], for which the figures for the IC50 at Pim-2, at Pim-1 and with KMS-12-BM cell lines were 7.94 nM, 5.4 nM and 3390 nM, respectively.
For `Cc1nc2ccc(F)c(-c3cc4c([nH]3)C3(CC3)NC4=O)c2nc1NC1CC1` [Example 283, 2′-(3-(cyclopropylamino)-6-fluoro-2-methylquinoxalin-5-yl)-1′H-spiro[cyclopropane-1,6′-pyrrolo[3,4-b]pyrrol]-4′(5′H)-one], in that order: 0.278 nM, 0.303 nM and 75.2 nM.
Take `Cc1nc2ccc(F)c(-c3cc4c([nH]3)[C@@H](C)NC4=O)c2nc1NC1CC1` [Example 284, (R)-2-(3-(cyclopropylamino)-6-fluoro-2-methylquinoxalin-5-yl)-6-methyl-5,6-dihydropyrrolo[3,4-b]pyrrol-4(1H)-one]: the IC50 on Pim-2 was 0.0378 nM; on Pim-1 it was 0.0282 nM; in the assay with KMS-12-BM cell lines, 18.6 nM.
On to `Cc1nc2ccc(F)c(-c3cc4c([nH]3)[C@H](C)NC4=O)c2nc1NC1CC1` [Example 285, (S)-2-(3-(cyclopropylamino)-6-fluoro-2-methylquinoxalin-5-yl)-6-methyl-5,6-dihydropyrrolo[3,4-b]pyrrol-4(1H)-one], for which the IC50 on Pim-2 was 0.902 nM; at Pim-1 it was 0.534 nM; in the assay on KMS-12-BM cell lines it was 51.8 nM.
In the case of `Cc1nc2cccc(-c3cc4c([nH]3)[C@@H](C)NC4=O)c2nc1NC(C)C` [Example 287, (6R)-6-methyl-2-(2-methyl-3-((1-methylethyl)amino)-5-quinoxalinyl)-5,6-dihydropyrrolo[3,4-b]pyrrol-4(1H)-one], the IC50 on Pim-2 is 1.64 nM; at Pim-1, 1.78 nM; with KMS-12-BM cell lines, 75.8 nM.
Regarding `Cc1nc2cccc(-c3cc4c(n3C(=O)OC(C)(C)C)CCNC4=O)c2nc1NC(C)(C)C` [Example 290, tert-butyl 2-(3-(tert-butylamino)-2-methylquinoxalin-5-yl)-4-oxo-4,5,6,7-tetrahydro-1H-pyrrolo[3,2-c]pyridine-1-carboxylate], the results for the IC50 on Pim-2, on Pim-1 and with KMS-12-BM cell lines were 35.8 nM, 39.7 nM and 4190 nM, respectively.
As to `Cc1nc2cccc(-c3cc4c([nH]3)CCN(C(=O)OC(C)(C)C)C4=O)c2nc1NC(C)(C)C` [Example 291, tert-butyl 2-(3-(tert-butylamino)-2-methylquinoxalin-5-yl)-4-oxo-6,7-dihydro-1H-pyrrolo[3,2-c]pyridine-5(4H)-carboxylate], the 50% inhibitory concentration (IC50) turned out to be 65.2 nM at Pim-2, 99 nM on Pim-1 and 7920 nM in the assay with KMS-12-BM cell lines.
As for `Cc1nc2cccc(-c3cc4c([nH]3)CCNC4=S)c2nc1NC(C)(C)C` [Example 292, 2-(3-(tert-butylamino)-2-methylquinoxalin-5-yl)-6,7-dihydro-1H-pyrrolo[3,2-c]pyridine-4(5H)-thione], the half-inhibitory concentration (IC50) at Pim-2 was 2.54 nM; on Pim-1, 1.61 nM; with KMS-12-BM cell lines, 657 nM.
`Cc1nc2cccc(-c3cc4c([nH]3)[C@H](C)NC4=O)c2nc1NCC(F)(F)F` [Example 293, (6S)-6-methyl-2-(2-methyl-3-((2,2,2-trifluoroethyl)amino)-5-quinoxalinyl)-5,6-dihydropyrrolo[3,4-b]pyrrol-4(1H)-one]: the IC50 at Pim-2 was determined as 6.02 nM; on Pim-1, 6.37 nM; in the assay on KMS-12-BM cell lines, 410 nM.
In the case of `Cn1c(NC(C)(C)C)nc2c(-c3cc4c([nH]3)CCNC4=O)cccc2c1=O` [Example 448, 2-(tert-butylamino)-3-methyl-8-(4-oxo-4,5,6,7-tetrahydro-1H-pyrrolo[3,2-c]pyridin-2-yl)-4(3H)-quinazolinone], the IC50 on Pim-2 came to 0.169 nM; in the assay on KMS-12-BM cell lines, 30.8 nM.
